# From US20070224200A1, “Gm3 Synthase as a Therapeutic Target in Microvascular Complications of Diabetes” (priority 2004, published 2007)
# What was measured:
# [1] = system: renal mesangial cells (RMC); assay: AGE effect on proliferation of renal mesangial cells (cell count, total proteins); type: cell-based, rat; settings: 3 μM AGE, 4 days
# From the text: Rat renal mesangial cells (RMC) were obtained from purified glomeruli of young male Wistar rats (Charles River, l'Arbresle, France). Briefly, cortex fragments were isolated from rat kidneys freshly removed under sterile conditions. Small pieces were mechanically forced through a 230 μm mesh with HBSS buffer. The glomeruli, passed through this mesh, were then forced through a 73.7 μm mesh. Finally, they were placed on a 70 μm mesh and placed in 6 cm dishes covered with fibronectin (4 dishes for 2 renal glomeruli) in DMEM supplemented with 20% of foetal bovine serum, 1% of glutamine and 1% of penicillin/streptomycin. After the attachment period, the excrescence of RMC from glomeruli occurred after three weeks and the cells were then cultivated to the fifth passage in order to remove the residual epithelial and endothelial cells. The RMC are characterised by morphological criteria (star shape, wick shape when they are confluent) and by positive labelling with vimentin, smooth muscle α-actin and Thy-1 antigen. […]
# (§1) At the end of the treatment, the cells were harvested with trypsin and the cell residues were washed twice with a phosphate buffered saline solution (iced PBS) (Sigma). For each sample, one aliquot of cells was counted using a haemocytometer in order to determine the number of cells. […]
# GM3 synthase [2] = assay: GM3 synthase activity in homogenates of pericytes treated with AGE; type: cell-based, bovine; settings: 3 μM AGE, 7 days, vs BSA control
# Protocol: (§2) The AGE and the BSA control (final concentration of 3 μM) were added to the culture medium 24 hours after inoculation. Each cell type was treated for one passage (about 7 days for the BRP and 4 days for the RMC). The culture medium was replaced with a fresh medium every two days.
# (§3) At the end of the treatment, the cells were washed with PBS, incubated for 20 minutes at 4° C. in 50 μl of lysis buffer (20 mM sodium cacodylate, pH 6.6 (Sigma), 0.2% of Triton X-100, 1 mM EDTA, 10 μl/ml of protease inhibitors, Calbiochem, La Jolla, Calif., United States) and then collected by scraping. Four dishes of BRP (about 2-3×10^6 cells) and three dishes of RMC (about 3-6×10^6 cells) were pooled. The cell lysates were centrifuged at 10,000 g for 5 minutes and the proteins in the supernatants were used to measure the GM3 synthase activity. The glomerular residues were mechanically homogenised with a syringe in 25 mM Hepes containing 1 mM EDTA and 10 μl/ml of protease inhibitors. The homogenates were then centrifuged at 1000 g for 2 minutes and the postnuclear supernatant was used to measure the GM3 synthase activity. Equivalent amounts of proteins for each sample (about 500 μg for the cells and 100 μg for the glomeruli) were used to perform the test. […]
# [3] = system: gangliosides in mesangial cells (RMC); assay: Ganglioside profile in mesangial cells treated with AGE (HPTLC); type: cell-based, rat; settings: 3 μM AGE, resorcinol staining
# Protocol: as §2
# (§4) For metabolic labelling of the gangliosides, 0.2 μCi/ml or 1 μCi/ml of [^14C(U)]-D-galactose (329.5 mCi/mmol) (PerkinElmer Life Sciences, Boston, Mass.) was added to the culture medium overnight for the labelling experiments with a high specific activity (GM2 and GM1 measuring experiment). The cells (5-8×10^5 pericytes or 12-20×10^5 mesangial cells) were then harvested by trypsinisation and washed three times in PBS. The gangliosides were extracted from the cell residues by the method described by Bouchon et al. (Bouchon et al., 1990), modified by Natalizio et al. (Natalizio et al., 2002). Briefly, the cell residues were dispersed in 2 ml of chloroform (C)/methanol (M) (1:1, v/v), mixed vigorously and extracted overnight at 4° C. After centrifugation, the residues were extracted twice with 2 ml of the same solvent. The pooled extracts of total lipids were dried by evaporation and separated with the aid of a 1 mM C/M/PBS solution (10:10:7, v/v/v). The upper phases, containing the gangliosides, were then desalted on a C18 silica gel column (Waters Corporation, Milford, Mass.) and analysed by HPTLC (Merck, Darnstadt, Germany). The plates were developed in 0.2% C/M/CaCl2 (55:45:10, v/v/v). The gangliosides were visualised by autoradiography using a phosphorus screen and a Storm 820 (Molecular Dynamics, Amersham Pharmacia Biotech, Piscataway, United States) and by labelling with resorcinol (specific stain for gangliosides: resorcinol 0.3% (Sigma), CuSO4 0.03%, HCl 30%) using an Image Master VDS-CL (Amersham Pharmacia Biotech). Quantification was performed using an Image Quant (Molecular Dynamics). As GT1b was absent from the ganglioside profiles of both the BRP and the RMC, it was added to the samples as an internal standard prior to lipid extraction.
# [4] = system: gangliosides in pericytes (BRP); assay: Ganglioside profile in pericytes treated with AGE (HPTLC); type: cell-based, bovine; settings: 3 μM AGE
# Protocol: as §2, §4
# pericytes (BRP) [5] = assay: AGE effect on proliferation of pericytes (cell count, total proteins); type: cell-based, bovine; settings: 3 μM AGE, 7 days
# From the text: Bovine retinal pericytes (BRP) were isolated from bovine retinal micro-vessels as described previously (Lecomte et al., 1996). Briefly, the retinas were obtained by dissection under sterile conditions from enucleated bovine eyes obtained from a local abattoir. After the contaminating pigmented epithelial cells of the retina had been removed, the retinas (2 per culture dish) were sliced into small pieces and homogenised in a Dounce homogeniser in a Hanks balanced saline solution (Ca^2+/Mg^2+-free oxygenated HBSS supplemented with Hepes 10 mM, pH 7.4, antibiotics 1%, bovine serum albumin (BSA, Sigma, Saint-Quentin Fallavier, France) 0.5%). […] The BRP cultures were 100% pure, as characterised by their polygonal irregular morphology with pseudopodia and their growth into non-apposed cells, and as evaluated by positive labelling for both α1-actin and a specific glycolipid antigen (3G5 antibody) and by negative labelling for the von Willebrand factor expressed in the endothelial cells (Lecomte et al., 1996). […]
# as §1
# GM3 synthase [6] = assay: GM3 synthase activity in homogenates of mesangial cells treated with AGE; type: cell-based, rat; settings: 3 μM AGE, 4 days, vs BSA control
# Protocol: as §2, §3
# pericytes (BRP) [7] = assay: Treatment with exogenous gangliosides, proliferation of pericytes; type: cell-based, bovine; settings: 50 μM, 7 days, total proteins
# Protocol: (§5) To evaluate the effect of exogenous gangliosides on the proliferation of BRP and RMC, the cells were cultivated in 96-well plates. Exogenous glycolipids GM3, GM2, GM1 and GD1a, glucosylceramide and lactosylceramide (Matreya) were added to the complete culture medium in a final concentration of 50 μM in the form of complexes with BSA in a 1:1 ratio in DMEM/10 mM Hepes, pH 7.4. At the end of the treatment, the cells were washed twice with PBS and lysed for 30 minutes at 37° C. in 50 μl of a Ripa lysis buffer (PBS 10 mM, NP40 1% (Pierce, Perbio Science, Brebières, France), sodium deoxycholate 0.5%, SDS 0.1%, protease inhibitors 10 μl/ml). As the number of cells in our experiments was correlated with the total protein concentrations (cf. FIG. 1), the total proteins were measured using the BCA protein test (Pierce) in order to evaluate the cell proliferation.
# mesangial cells (RMC) = assay: Treatment with exogenous gangliosides, proliferation of mesangial cells; type: cell-based, rat; settings: 50 μM, 4 days, total proteins
# Protocol: as §5
# RMC = assay: Proliferation of siRNA-transfected RMC treated with AGE; type: cell-based, rat; settings: 400 nM siRNA, then 3 μM AGE 3 days, total proteins
# Protocol: To block the GM3 synthase activity, RMC were cultivated in 6-well culture plates up to 30% confluence and then transfected with an interfering RNA (siRNA) specific for GM3 synthase, which was designed against a rat cDNA sequence (Ambion, Huntingdon, UK) using an Oligofectamine reagent (Invitrogen Corporation). The GM3 synthase antisense sequence used was GGGUUAUUCUGAACAUGUUtt (SEQ ID No: 5). In preliminary experiments, a dose-response study was carried out by transfecting the cells with increasing concentrations of siRNA (0-800 nM). After 72 h of transfection, the GM3 synthase activity was measured on homogenates of transfected cells. The proliferation was then evaluated on the cells transfected with the siRNA. For this purpose, 24 hours after transfection with 400 nM siRNA, the cells were treated with 3 μM BSA control or AGE (3 days). The cells were then washed twice with PBS and lysed in a Ripa lysis buffer and the proteins were measured in order to evaluate the cell proliferation.
# GM3 synthase [8] = assay: GM3 synthase activity in RMC transfected with GM3 synthase siRNA; type: cell-based, rat
# Protocol: as §3, with “inhibitors.” for “inhibitors. The homogenates were then centrifuged at 1000 g for 2 minutes and the postnuclear supernatant was used to measure the GM3 synthase activity. Equivalent amounts of proteins for each sample (about 500 μg for the cells and 100 μg for the glomeruli) were used to perform the test.”
# To block the GM3 synthase activity, RMC were cultivated in 6-well culture plates up to 30% confluence and then transfected with an interfering RNA (siRNA) specific for GM3 synthase, which was designed against a rat cDNA sequence (Ambion, Huntingdon, UK) using an Oligofectamine reagent (Invitrogen Corporation). […] After 72 h of transfection, the GM3 synthase activity was measured on homogenates of transfected cells. The proliferation was then evaluated on the cells transfected with the siRNA. […] The cells were then washed twice with PBS and lysed in a Ripa lysis buffer and the proteins were measured in order to evaluate the cell proliferation.
# [9] = pericytes, resorcinol staining, vs BSA control
substance,measurement,setting,value
AGE: prepared by incubating bovine serum albumin with 100 mM methylglyoxal at 37° C. for 50 hours,reduction of the number of mesangial cells,"[1]; cell count, vs BSA control",40%
same,total proteins,[1]; mesangial cells,decreased in correlation with the number of cells
same,increase of GM3 synthase activity (factor),GM3 synthase [2],about 1.8
same,GD1a levels,[3],not affected
same,increase in GM3,[3]; vs BSA control,33%
same,reduction of GD3,[3]; vs BSA control,30%
same,increase in GM2,"[4]; BRP, [14C]-D-galactose labelling, autoradiography",55%
same,increase in series a ganglioside GM1,[4]; [9],about 40%
same,increase in series a ganglioside GM3,[4]; [9],about 40%
same,reduction of series b ganglioside GD3,[4]; [9],24%
same,reduction of the number of pericytes,"pericytes (BRP) [5]; cell count, vs BSA control",33%
same,total proteins,pericytes (BRP) [5]; pericytes,decreased in correlation with the number of cells
same,increase of GM3 synthase activity (factor),GM3 synthase [6],about 1.5
glucosylceramide,effect on proliferation of pericytes (in words),pericytes (BRP) [7],no effect
same,effect on proliferation of mesangial cells (in words),mesangial cells (RMC),no effect
"α-N-acetyl-neuraminyl-2,3-β-D-galactosyl-1,4-β-D-glucosylceramide [GM3]",effect on proliferation of pericytes (in words),pericytes (BRP) [7],weakly inhibited
same,effect on proliferation of mesangial cells (in words),mesangial cells (RMC),no significant effect
lactosylceramide,effect on proliferation of pericytes (in words),pericytes (BRP) [7],no effect
same,effect on proliferation of mesangial cells (in words),mesangial cells (RMC),no effect
GGGUUAUUCUGAACAUGUUtt (guide GGGUUAUUCUGAACAUGUUTT; chemistry not given here) [GM3 synthase siRNA],effects of AGE on the proliferation of the RMC,RMC,partially inhibited
same,inhibition of GM3 synthase activity,GM3 synthase [8]; RMC transfected with siRNA,50%
same,inhibition of GM3 synthase activity (in words),"GM3 synthase [8]; RMC, preliminary experiments, siRNA 0-800 nM, 72 h",effectively inhibited
